Test results from patent publication US20110027251A1, “NOVEL USES FOR 4-PHENYLBUTYRATE (4PBA) AND ITS PHARMACEUTICALLY ACCEPTABLE SALTS” (priority 2008, published 2011).

Columns and labels:
Assay type in all cases: in vivo
[1] = tested on: GSK3b phosphorylated at Ser 9; test: Western blot of inactive GSK3b phosphorylated at Ser 9 in hippocampus; details: Tg2576 mice, 200 mg/kg i.p. 5 weeks; compared with vehicle-treated transgenic mice (FIG. 3B)
Excerpt: (§1) We used Tg2576 transgenic mice with Alzheimer's Disease expressing the 695-aa human APP isoform which contains the double APPswe Swedish mutation [(APP695) Lys670→Asn, Met671→Leu] triggered by a […] hamster promoter. In the Tg2576 transgenic mice suffering from Alzheimer's disease used in the experimental murine model, the Aβ peptide content in the brain accumulates exponentially between their 7th and 12th months of life. […] Therefore 16 months old Tg2576 transgenic mice females were treated once a day intraperitoneally with 200 mg/kg 4PBA or its vehicle during 5 weeks. […]
(§2) NaF) spun at 14,000×g, 4° C. for 20 min and the aliquots obtained from the supernatant were then freeze-dried at −80° C. […] Protein concentration was determined in both cases (using the Bradford test from Bio-Rad) and the aliquots stored at −80° C. until further use. […]
(§3) To carry out the Western Blot analyses, protein samples were mixed in buffers having the same volumes (2×Laemmli) resolved in SDS-polyacrylamide gels and transferred to a nitrocellulose membrane. […] After two washings in PBS/Tween-20 or TBS/Tween20 and one washing in PBS or TBS, immunolabelled protein bands were detected using an anti-rabbit or anti-mouse HRP conjugate (Santa Cruz, 1:5000 dilution) followed by a chemiluminescence system (ECL Amersham Biosciences), and autoradiographic exposure to HyperfilmTMECL (Amersham Biosciences). […]

Aβ40 = Aβ40 level in cerebral cortex, sandwich ELISA; details: Tg2576 mice, 200 mg/kg i.p. 5 weeks; compared with vehicle-treated transgenic mice (FIG. 2A)
Excerpt: as §1, with “weeks. To do this a 4PBA solution was prepared titrating equimolecular amounts of 4-phenylbutyric acid (Sigma) and sodium hydroxide at a pH: 7.4.” for “weeks.”
(§4) Mice were sacrificed 24 hours after performing the last test in the Morris water maze. […] Then the levels of Aβ40 and Aβ42 in the cerebral cortex were analyzed by a sandwich type ELISA test.
(§5) The cerebral cortexes were homogenized in a buffer containing 5 M guanidine HCl and 50 mM Tris HCl at a pH=8, protease inhibitors (Roche's CompleteTM Protease Inhibitor Cocktail), and phosphatase inhibitors (0.1 mM Na3VO4, 1 mM NaF). […] Aliquots of the supernatant were freeze-dried at −80° C. and the protein concentration determined using the Bradford method with the Bio-Rad kit. Aβ42 levels were measured with an extra sensitive sandwich-type ELISA kit from Biosource (Camarillo, Calif., USA). […]

histone 4 (H4) = test: Western blot of acetylated histone 4 in cortex; details: Tg2576 mice, 200 mg/kg i.p. 5 weeks; cortex extracts (FIG. 5)
Excerpt: as §1, with “weeks. To do this a 4PBA solution was prepared titrating equimolecular amounts of 4-phenylbutyric acid (Sigma) and sodium hydroxide at a pH: 7.4.” for “weeks.”
To carry out the Western Blot analyses, protein samples were mixed in buffers having the same volumes (2×Laemmli) resolved in SDS-polyacrylamide gels and transferred to a nitrocellulose membrane. […] After two washings in PBS/Tween-20 or TBS/Tween20 and one washing in PBS or TBS, immunolabelled protein bands were detected using an anti-rabbit or anti-mouse HRP conjugate (Santa Cruz, 1:5000 dilution) followed by a chemiluminescence system (ECL Amersham Biosciences), and autoradiographic exposure to HyperfilmTMECL (Amersham Biosciences). The signals were quantified using the Scion Image program (Scion Corporation).

Tg2576 transgenic mice = test: Morris water maze (spatial learning and memory)
Excerpt: We used Tg2576 transgenic mice with Alzheimer's Disease expressing the 695-aa human APP isoform which contains the double APPswe Swedish mutation [(APP695) Lys670→Asn, Met671→Leu] triggered by a […] hamster promoter. In the Tg2576 transgenic mice suffering from Alzheimer's disease used in the experimental murine model, the Aβ peptide content in the brain accumulates exponentially between their 7th and 12th months of life. […] Therefore 16 months old Tg2576 transgenic mice females were treated once a day intraperitoneally with 200 mg/kg 4PBA or its vehicle during 5 weeks. To do this a 4PBA solution was prepared titrating equimolecular amounts of 4-phenylbutyric acid (Sigma) and sodium hydroxide at a pH: 7.4. A group of normal mice, not genetically altered, from same similar strains and ages was used as control group. All the clinical test procedures were performed according to the European and the Spanish legislation (86/609/CEE; RD 1201/2005).
The Morris water maze was used to evaluate the operational and reference memory functions in Tg2576 transgenic mice treated with 4 PBA as described previously in the literature (Ribe et al., 2005). Groups of Tg2576 female mice treated with 4PBA (n=6), vehicle (n=7), and non-transgenic litter siblings (n=10) were subjected to spatial learning and memory tests using the Morris water maze when they became 16 months old. The maze consisted of a circular pool filled with water at 20° C. The mice received prior training in a pool with a visible platform during 3 consecutive days (8 tests per day) being able to swim towards a platform raised above the water level. The training with hidden platform took 9 consecutive days (4 tests per day) during which all mice were allowed 60 seconds to find the platform submerged 1cm below the water surface. […] All the trials were monitored with a VHS camera and the Watermaze software to analyze escape latencies and the percentage of time of occupation of each pool quadrant during prior tests (using the Ethovision software, Wageninge, Netherlands). […]

Aβ42 = Aβ42 level in cerebral cortex, sandwich ELISA; details: Tg2576 mice, 200 mg/kg i.p. 5 weeks; compared with vehicle-treated transgenic mice (FIG. 2A)
Excerpt: as §1, with “weeks. To do this a 4PBA solution was prepared titrating equimolecular amounts of 4-phenylbutyric acid (Sigma) and sodium hydroxide at a pH: 7.4.” for “weeks.”
as §4, §5

PSD95 = test: Western blot of PSD95 in membrane enriched hippocampal protein extracts; details: Tg2576 mice, 200 mg/kg i.p. 5 weeks; membrane enriched hippocampal extracts (FIG. 6)
Excerpt: as §1, §2, §3

[2] = tested on: GluR1 subunit of the AMPA receptor; test: Western blot of GluR1 in membrane enriched hippocampal protein extracts; details: Tg2576 mice, 200 mg/kg i.p. 5 weeks, vehicle 81.18±9.5%, non-transgenic 100.0±6.5% (FIG. 6)
Excerpt: as §1, §2, §3

MAP-2 = test: Quantitative western blot of MAP-2 in hippocampal extracts; details: Tg2576 mice, 200 mg/kg i.p. 5 weeks; untreated Tg2576 54.9±10.7, non-transgenic 100.0±14.9 (FIG. 6)
Excerpt: as §1, §2, §3

GRP78 = test: Western blot of GRP78 in hippocampus; details: Tg2576 mice, 200 mg/kg i.p. 5 weeks; compared with non-transgenic mice (FIG. 4)
Excerpt: as §1, §2, §3

[3] = tested on: tau phosphorylated at Ser-202/Thr-205 (AT8); test: Western blot of phosphorylated tau (AT8) in hippocampus; details: Tg2576 mice, 200 mg/kg i.p. 5 weeks; compared with non-transgenic mice (FIG. 3A)
Excerpt: as §1, §2, §3

Question: For `O=C([O-])CCCc1ccccc1.[Na+]` [4PBA, 4-phenylbutyric acid], which “levels of inactive GSK3b phosphorylated at Ser 9 in hippocampus” value [1] is on record?
Answer: higher

Question: And the “Aβ40 levels in cerebral cortex” value (Aβ40)?
Answer: no difference was observed

Question: What about the “acetylation of cortical histone 4 (H4)” value (histone 4 (H4)) of the same compound?
Answer: induction of acetylation

Question: And the “proficiency in Morris water maze, invisible platform (escape latency)” value (Tg2576 transgenic mice; 16 month old Tg2576 female mice, 200 mg/kg i.p. once a day for 5 weeks, compared with non-transgenic control mice of same age (FIG. 1B))?
Answer: did not differ

Question: What about the “escape latencies, visible platform training” value (Tg2576 transgenic mice; Tg2576 mice, 200 mg/kg i.p. 5 weeks, first training tests with visible platform (FIG. 1A)) of the same compound?
Answer: did not differ significantly

Question: And the “percentage of time spent in the target quadrant (memory retention)” value (Tg2576 transgenic mice; Tg2576 mice, 200 mg/kg i.p. 5 weeks, platform removed, compared with control group of same age (FIG. 1C))?
Answer: did not differ

Question: What about the “Aβ42 levels in cerebral cortex” value (Aβ42) of the same compound?
Answer: no difference was observed

Question: What about the “expression of PSD95 levels” value (PSD95) of the same compound?
Answer: induced significantly

Question: What about the “expression levels of the GluR1 subunit of the AMPA receptor” value [2] of the same compound?
Answer: 161.37±27.5%

Question: And the MAP-2 expression levels (MAP-2)?
Answer: 77.7±11.6

Question: And the “GRP78 levels in hippocampus” value (GRP78)?
Answer: did not differ

Question: What about the “phosphorylated tau at the AT8 site in hippocampus” value [3] of the same compound?
Answer: no differences were found
